One data set deals with T1, Aβ(1–42) aggregates (Homo sapiens, UniProt P05067).
T1 construct: β-Amyloid(1–42) peptide was purchased from Bachem; purchased Bachem (Torrance, CA, USA)
The experiment in a line: In vitro binding assay using Aβ(1–42) aggregates (intrinsic fluorescence of the ligands). The settings on record: Aβ(1–42) aggregates 1 μM, PBS, 37 °C, 1 h, ligand fluorescence. How it is done: Binding constants of the ligands for Aβ(1–42) aggregates were determined using the intrinsic fluorescence of the ligands. The binding constant of CRANAD-2 was also measured for comparison. […] Considering the Kd values and feasibility of ^18F-labeling of all the ligands, ligand 2 was selected for further in vitro and in vivo studies.
Aβ(1–42) aggregates were prepared as described in the literature. Briefly, Aβ(1–42) peptide (200 μM) was dissolved in PBS and stirred gently at 37 °C for 2 d. The Aβ(1–42) aggregate formation was confirmed by thioflavin-T fluorescence assay. In vitro binding assays were carried out using the methods described in the literature with some modifications. Various concentrations of ligands (10–400 nM) were dissolved in DMSO, which were then added to PBS solutions of Aβ(1–42) aggregates (1 μM) charged in 96-well black clear-bottom plates. The final concentration of DMSO in a total volume of solution was 1%. Non-specific binding was determined in the absence of Aβ(1–42) aggregates. The reaction mixtures were incubated at 37 °C for 1 h, after which the fluorescence spectra of the ligands were obtained (excitation 510–560 nm and emission 590–660 nm) using a monochromator multimode microplate reader. All experiments were performed in triplicate. Kd values were determined using GraphPad Prism software 5.

The next data set has as its target Aβ plaques (Homo sapiens, UniProt P05067). The experiment in a line: Fluorescent staining of Aβ plaques in mouse brain sections. More on the design: species or system double transgenic mouse (Tg APP/PS-1). The procedure: Fluorescent staining of Aβ plaques by 2 was performed using the brain sections from a double transgenic mouse (Tg APP/PS-1). Localization of the Aβ plaques was confirmed by immunofluorescent staining the adjacent brain sections from the transgenic mouse with an anti-Aβ antibody (Fig. 6). The Aβ plaques in the cerebral cortex and hippocampus regions of the transgenic mouse brain sections were stained with 2 (Fig. 6a–c). The staining pattern was consistent with that observed with an Aβ-specific antibody (Fig. 6d–f).
Figure 6 A double transgenic mouse brain section (a–c) and an age-matched wild-type mouse brain section (g–i) stained with 2. The adjacent double transgenic mouse brain section (d–f) and age-matched wild-type mouse brain section (j–l) stained with an Aβ-specific antibody. Magnification of the regions in white boxes (c,f,i and l). Scale bars: 100 μm (c,f,i and l) and 200 μm (the rest).
A double transgenic mouse (APP/PS1, male, 18 months old) was transcardially perfused with PBS, followed by 10% neutral buffered formalin (NBF) under anesthesia. The brain was then immediately removed from skull and post-fixed in 10% NBF for 24 h. The hippocampus and cerebral cortex regions were sliced using brain matrix, embedded in paraffin, and sectioned serially into 4 μm thickness. Brain sections from an age-matched wild-type mouse (male) were obtained as described above. […]

The nature of data set [1]: Excitation and emission spectra. The class given is physicochemical. The following applies: methanol, 2.5 μM. The procedure:
Despite this, ligand 2 has sufficient red-shifted emission for optical imaging.
Ligand 2 was dissolved in methanol (2.5 μM), and its excitation and emission spectra were obtained using a Mithras[2] LB 943 monochromator multimode microplate reader (Berthold Technologies, Bad Wildbad, Germany).

Data set [2] can be described thus: Metabolism study of 2 (TLC with fluorescence detection of brain homogenates). Type of data set: in vivo, Balb/C nude mice. The procedure: In order to further investigate the metabolites of [^18F]2, metabolism study of 2 was also performed; the brain homogenates were analyzed by TLC, followed by fluorescence detection.
After ex vivo optical imaging, the brain tissues were homogenized in 1 mL of acetonitrile and centrifuged. The supernatants were analyzed by TLC using a 4:1 mixture of ethyl acetate–hexane as the developing solvents, and the TLC plates were subjected to optical imaging for 1 sec (excitation, 570 nm; emission, 660 nm).

Another data set can be described thus: Biodistribution study. Type of data set: in vivo. The settings on record: ICR mice, i.v. How it is done:
However, there was poor brain uptake at 2 min after injection with increased uptake over time, as follows: 0.49 ± 0.02% ID/g at 2 min, 1.02 ± 0.08% ID/g at 30 min, and 1.19 ± 0.06% ID/g at 60 min (Table 1).
ICR mice (male, 7-week-old, four mice per time point) were injected with [^18F]2 (1.85 MBq) dissolved in 10% ethanol–saline via a tail vein. Mice were sacrificed at the indicated time points (2, 30, and 60 min). Samples of blood and major tissues (heart, lung, liver, spleen, kidney, intestines, muscle, femur, and brain) were removed, weighed, and counted in a Wizard[2] automatic gamma counter (PerkinElmer, Waltham, MA, USA). Data are expressed as the percent injected dose per gram of tissue (% ID/g).

Data set [3] is described as follows: In vitro stability in PBS and FBS (radio-TLC). The class given is in vitro ADME. The following applies: for remaining at 2 h: 37 °C, 120 min, radio-TLC, read-out: % remaining radioligand. The procedure: Stability study was performed by incubating [^18F]2 in phosphate-buffered saline (PBS) and in fetal bovine serum (FBS) at 37 °C for 120 min.
Data are presented as % remaining radioligand.
[^18F]2 (21.5 MBq) was dissolved in a minimal volume of 10% ethanol–saline and incubated with PBS or 50% FBS (Gibco, Brooklyn, NY, USA) at 37 °C for 120 min. Aliquots were taken from the incubation solution after 0, 2, 30, 60, and 120 min. The aliquots were analyzed using a radio-TLC scanner.

Data set [4] is described as follows: Metabolism study of [^18F]2 (radio-TLC of brain homogenates and blood). Type of data set: in vivo, ICR mice. The following applies: brain homogenate, 2 min after injection. The procedure:
However, the radioligand disappeared almost entirely, and the new polar radioactive peaks appeared at the origin of radio-TLC at 30 and 60 min after injection (82% and 100%, respectively; Fig. 9c,d). The radioligand also disappeared in the blood samples, but at a rate slower than that of the brain samples (Fig. 9f–h). The polar radioactive products were further analyzed by radio-TLC using a polar developing solvent system, and the polar products moved toward the solvent front. […] Moreover, the polar products were not adsorbed onto calcium phosphate (7% in calcium phosphate pellet vs. 93% in supernatant), which is a component of the bone matrix.
Figure 9 Radio-TLC analysis of the brain homogenates and blood samples obtained at 2, 30, and 60 min after injection of [^18F]2 into ICR mice. […] The 60-min samples (d and h) were further analyzed by radio-TLC using a 1:1:0.01 mixture of dichloromethane–methanol–triethylamine as the developing solvents (e and i). TLC analysis followed by fluorescence detection of the brain homogenates obtained at 2, 30, and 60 min after injection of 2 into Balb/C nude mice (j). […]
[^18F]2 (19.6 MBq) dissolved in 10% ethanol–saline was injected into ICR mice via a tail vein. […] The supernatants were analyzed by radio-TLC using a 4:1 mixture of ethyl acetate–hexane or a 1:1:0.01 mixture of dichloromethane–methanol–triethylamine as the developing solvents.

Data set [5] can be described thus: Partition coefficient measurement (1-octanol/water). Type of data set: physicochemical. The settings on record: 1-octanol and water. How it is done:
Difluoroboron complex formation lowered the lipophilicity of the curcumin derivative based on TLC analysis.
Partition coefficient of [^18F]2 was measured according to the method described in the literature. [^18F]2 was dissolved in 1-octanol (1 mL) and diluted with water (1 mL). The solution was vortexed vigorously for 5 min and then centrifuged. The 1-octanol and aqueous layers were separated out, and a 500-μL aliquot of each layer was removed and measured using a gamma counter. Samples from the 1-octanol and aqueous layers were repartitioned until consistent values were obtained. The log P is expressed as the logarithm of the ratio of the counts per minute of 1-octanol versus that of water.

Another data set deals with HIV-1 protease. More on the design: method as in PMID 8087563. The following applies: cited from earlier work.

This is an account of results in paper PMC6494845 (Scientific Reports, 2019).

The structures appear in SMILES notation. Read-outs that look alike come from different tables or passages of the source.

T1 sequence (P05067 672-713): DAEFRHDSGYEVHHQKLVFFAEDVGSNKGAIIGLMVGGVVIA
Aβ plaques, sequence (P05067 672-711 limits assumed): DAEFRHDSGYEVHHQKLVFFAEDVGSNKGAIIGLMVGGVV

At Aβ(1–42) aggregates, `CNc1ccc(/C=C/C2=[O+][B-](F)(F)OC(/C=C/c3ccc(OCCOCCF)cc3)=C2)cc1` [Ligand 1, BF2 complex of 4′-monomethylamino-4″-(2-(2-fluoroethoxy)ethoxy)curcuminoid] had a Kd of 0.0338 µM.

For the compound `CN(C)c1ccc(/C=C/C2=[O+][B-](F)(F)OC(/C=C/c3ccc(OCCOCCF)cc3)=C2)cc1` [Ligand 2, BF2 complex of 4′-dimethylamino-4″-(2-(2-fluoroethoxy)ethoxy)curcuminoid], at Aβ plaques (Tg APP/PS-1 mouse brain sections, cerebral cortex and hippocampus, 100 μM, 10 min), the “staining of Aβ plaques” value was “stained”. On Aβ plaques (age-matched wild-type mouse brain sections), the “staining of brain sections” value is on record as “no notable positive staining”. In data set [1], this compound yielded an emission of 650 nm and an excitation of 550 nm. At Aβ(1–42) aggregates, this compound gave a Kd of 0.0197 µM. In addition, the “fluorescent spot of 2 on TLC of brain homogenate” value in [2] (2-min sample) is “a fluorescent spot was detected”. For the same compound, the “fluorescent spot of 2 on TLC of brain homogenate” value in data set [2] (30- and 60-min samples) is listed as “did not appear”.

The compound `COc1cc(/C=C/C2=[O+][B-](F)(F)OC(/C=C/c3ccc(OCCOCCF)c(OC)c3)=C2)ccc1O` [Ligand 3, BF2 complex of 4′-(2-(2-fluoroethoxy)ethoxy)curcuminoid] gave a Kd on Aβ(1–42) aggregates of 0.139 µM.

`CN(C)c1ccc(/C=C/C2=[O+][B-](F)(F)OC(/C=C/c3ccc(OCC(O)CF)cc3)=C2)cc1` (stereo not shown) [Ligand 4, BF2 complex of 4′-dimethylamino-4″-(3-fluoro-2-hydroxypropoxy)curcuminoid] had a Kd on Aβ(1–42) aggregates of 0.0154 µM.

Take `CN(C)c1ccc(/C=C/C2=[O+][B-](F)(F)OC(/C=C/c3ccc(OCCOCC[18F])cc3)=C2)cc1` [[^18F]2]: in the data set “Biodistribution study” (2 min), the “Biodistribution, Blood” value is reported as 1.49 ± 0.12 % ID/g; the “Biodistribution, Brain” value was 0.49 ± 0.02 % ID/g; the “Biodistribution, Femur” value turned out to be 0.58 ± 0.10 % ID/g; the “Biodistribution, Heart” value was 2.20 ± 0.57 % ID/g. In “Biodistribution study” (2 min), the “Biodistribution, Kidney” value is on record as 3.25 ± 0.48 % ID/g; the “Biodistribution, Large intestine” value is listed as 0.24 ± 0.05 % ID/g; the “Biodistribution, Liver” value is recorded as 26.92 ± 1.58 % ID/g; the “Biodistribution, Lung” value was 3.56 ± 0.25 % ID/g. For the same compound, in “Biodistribution study” (2 min), the “Biodistribution, Muscle” value was 0.49 ± 0.19 % ID/g; the “Biodistribution, Small intestine” value is on record as 0.92 ± 0.13 % ID/g; the “Biodistribution, Spleen” value was determined as 12.59 ± 2.42 % ID/g. Further, in “Biodistribution study” (30 min), the “Biodistribution, Blood” value amounted to 2.50 ± 0.22 % ID/g; the “Biodistribution, Brain” value is 1.02 ± 0.08 % ID/g; the “Biodistribution, Femur” value came out at 0.91 ± 0.13 % ID/g; the “Biodistribution, Heart” value is 1.93 ± 0.19 % ID/g. In addition, in “Biodistribution study” (30 min), the “Biodistribution, Kidney” value turned out to be 4.11 ± 0.46 % ID/g; the “Biodistribution, Large intestine” value turned out to be 0.95 ± 0.11 % ID/g; the “Biodistribution, Liver” value was 14.21 ± 1.39 % ID/g; the “Biodistribution, Lung” value stood at 2.62 ± 0.29 % ID/g. In the data set “Biodistribution study” (30 min), the “Biodistribution, Muscle” value came to 0.97 ± 0.11 % ID/g; the “Biodistribution, Small intestine” value came to 6.47 ± 1.63 % ID/g; the “Biodistribution, Spleen” value is given as 11.66 ± 2.70 % ID/g. In “Biodistribution study” (60 min), the “Biodistribution, Blood” value is on record as 3.46 ± 0.81 % ID/g; the “Biodistribution, Brain” value is 1.19 ± 0.06 % ID/g; the “Biodistribution, Femur” value was determined as 1.43 ± 0.14 % ID/g; the “Biodistribution, Heart” value was found to be 1.87 ± 0.20 % ID/g. Further, in “Biodistribution study” (60 min), the “Biodistribution, Kidney” value is recorded as 2.58 ± 0.15 % ID/g; the “Biodistribution, Large intestine” value is 2.16 ± 0.42 % ID/g; the “Biodistribution, Liver” value is given as 9.36 ± 0.18 % ID/g; the “Biodistribution, Lung” value is reported as 2.34 ± 0.50 % ID/g. In addition, in the data set “Biodistribution study” (60 min), the “Biodistribution, Muscle” value turned out to be 0.87 ± 0.05 % ID/g; the “Biodistribution, Small intestine” value came to 14.92 ± 4.06 % ID/g; the “Biodistribution, Spleen” value amounted to 10.72 ± 2.45 % ID/g. In data set [3] (bovine, PBS and fetal bovine serum (50%), both PBS and FBS, read-out: % remaining radioligand (stable in both PBS and FBS)), the amount remaining at 120 min was > 83%. The fraction remaining at 2 h in [3] (bovine, fetal bovine serum (50%), FBS (50% FBS in method)) was 83%. For the same compound, the fraction remaining at 2 h in [3] (phosphate-buffered saline, PBS) is 89%. Besides, in data set [4], the “[^18F]2 remaining in the brain” value was 84%. Also, in data set [5], the logP stood at 2.58 ± 0.04.

For `COc1cc(/C=C/C2=CC(/C=C/c3ccc(O)c(OC)c3)=[O+][B-](F)(F)O2)ccc1O` [difluoroboron-curcumin], in the data set on HIV-1 protease, the IC50 is 24 µM.

For orientation: Kd means a measure of binding affinity in units of concentration. A lower Kd goes with higher affinity. As usually defined, the fraction remaining is what is left of the initial amount, in per cent. In general, logP refers to the decadic logarithm of the partition coefficient of the neutral form, usually between octanol and water. Higher therefore signals a more lipophilic compound. For orientation: IC50 means the concentration needed to halve the response being measured.
